Experimental data: patent US20220117938A1, “COMBINATON THERAPY WITH A DON PRODRUG AND AN IMMUNE CHECKPOINT INHIBITOR” (DRACEN PHARMACEUTICALS, INC., priority 2019, published 2022)

System: MC38 tumors
Assay: Anti-tumor efficacy of Compound 1 and Compound 3 by IV and SC routes in the MC38 model (Example 9)
Type: in vivo, mice
Description: Female C57BL/6 mice were inoculated subcutaneously in the right flank with MC38 cells for tumor development. Six days after tumor inoculation, mice with tumor sizes ranging from 52-97 mm^3 (average tumor size 71 mm^3) were selected and assigned into 10 groups using stratified randomization with 8 mice per group based upon their tumor volumes. The treatments were started from the day of randomization (defined as D0), Group 1 was treated with Vehicle control, SC qd×5 days on (Mon-Fri)×4 cycles; Group 2 was treated with Compound 1, 1.4 mpk SC, qd×5 days on (Mon-Fri)×4 cycles; Group 3 was treated with Compound 1, 7 mpk IV, biw (Mon, Thu)×4 cycles; Group 4 was treated with Compound 1, 14 mpk IV, biw (Mon, Thu)×4 cycles; Group 5 was treated with Compound 1, 14 mpk IV, qw (Mon)×4 cycles; Group 6 was treated with Compound 1, 21 mpk IV, qw (Mon)×4 cycles; Group 7 was treated with Compound 3, 1 mpk SC, qd 5 days on (Mon-Fri)×4 cycles; Group 8 was treated with Compound 3, 3 mpk SC, qd 5 days on (Mon-Fri)×4 cycles; Group 9 was treated with Compound 3, 9 mpk SC, qd 5 days on (Mon-Fri)×4 cycles; and Group 10 was treated with Compound 3, 7 mpk IV, tiw (Mon, Wed, Fri)×4 cycles. The tumor sizes were measured three times per week during the treatment. Survival was monitored with tumor volume exceeding 2000 mm^3 as endpoint. The entire study was terminated on D44 after start of the treatment. All treatments were well-tolerated without any adverse effects or significant body weight loss.

[1] = Group 2, 1.4 mpk SC qd Mon-Fri x4 cycles
[2] = Group 2, 1.4 mpk SC qd Mon-Fri x4 cycles, day 11
[3] = Group 3, 7 mpk IV biw x4 cycles
[4] = Group 3, 7 mpk IV biw x4 cycles, day 11
[5] = Group 4, 14 mpk IV biw x4 cycles
[6] = Group 4, 14 mpk IV biw x4 cycles, day 11
[7] = Group 5, 14 mpk IV qw x4 cycles
[8] = Group 5, 14 mpk IV qw x4 cycles, day 11
[9] = Group 6, 21 mpk IV qw x4 cycles
[10] = Group 6, 21 mpk IV qw x4 cycles, day 11

## CC(=O)N[C@@H](Cc1c[nH]c2ccccc12)C(=O)N[C@@H](CCC(=O)C=[N+]=[N-])C(=O)OC(C)C [Compound 1, Isopropyl (S)-2-((S)-2-acetamido-3-(1H-indol-3-yl)propanamido)-6-diazo-5-oxohexanoate]
[1]
  ILS: 170.0%
  MST: 40.5 days
  RTV at day 11: 0.63 ± 0.11
  Tumor Size at day 11: 43 ± 6 mm^3
Group 2, 1.4 mpk SC qd Mon-Fri x4 cycles, day 0
  Tumor volume: 71 ± 5 mm^3
Group 2, 1.4 mpk SC qd Mon-Fri x4 cycles, day 2
  Tumor volume: 64 ± 5 mm^3
Group 2, 1.4 mpk SC qd Mon-Fri x4 cycles, day 4
  Tumor volume: 68 ± 10 mm^3
Group 2, 1.4 mpk SC qd Mon-Fri x4 cycles, day 7
  Tumor volume: 61 ± 5 mm^3
Group 2, 1.4 mpk SC qd Mon-Fri x4 cycles, day 9
  Tumor volume: 39 ± 3 mm^3
[2]
  T/C: 3.86%
  TGI: 102.69%
  Tumor volume: 43 ± 6 mm^3
Group 2, 1.4 mpk SC qd Mon-Fri x4 cycles, day 14
  Tumor volume: 51 ± 9 mm^3
Group 2, 1.4 mpk SC qd Mon-Fri x4 cycles, day 16
  Tumor volume: 50 ± 7 mm^3
Group 2, 1.4 mpk SC qd Mon-Fri x4 cycles, day 18
  Tumor volume: 52 ± 9 mm^3
Group 2, 1.4 mpk SC qd Mon-Fri x4 cycles, day 21
  Tumor volume: 44 ± 7 mm^3
Group 2, 1.4 mpk SC qd Mon-Fri x4 cycles, day 23
  Tumor volume: 41 ± 9 mm^3
Group 2, 1.4 mpk SC qd Mon-Fri x4 cycles, day 25
  Tumor volume: 42 ± 11 mm^3
Group 2, 1.4 mpk SC qd Mon-Fri x4 cycles, day 28
  Tumor volume: 55 ± 14 mm^3
Group 2, 1.4 mpk SC qd Mon-Fri x4 cycles, day 30
  Tumor volume: 140 ± 50 mm^3
Group 2, 1.4 mpk SC qd Mon-Fri x4 cycles, day 32
  Tumor volume: 303 ± 119 mm^3
Group 2, 1.4 mpk SC qd Mon-Fri x4 cycles, day 35
  Tumor volume: 509 ± 166 mm^3
Group 2, 1.4 mpk SC qd Mon-Fri x4 cycles, day 37
  Tumor volume: 896 ± 217 mm^3
[3]
  ILS: 123.3%
  MST: 33.5 days
  RTV at day 11: 1.44 ± 0.20
  Tumor Size at day 11: 99 ± 11 mm^3
Group 3, 7 mpk IV biw x4 cycles, day 0
  Tumor volume: 71 ± 4 mm^3
Group 3, 7 mpk IV biw x4 cycles, day 2
  Tumor volume: 61 ± 9 mm^3
Group 3, 7 mpk IV biw x4 cycles, day 4
  Tumor volume: 64 ± 7 mm^3
Group 3, 7 mpk IV biw x4 cycles, day 7
  Tumor volume: 98 ± 8 mm^3
Group 3, 7 mpk IV biw x4 cycles, day 9
  Tumor volume: 79 ± 7 mm^3
[4]
  T/C: 8.87%
  TGI: 97.42%
  Tumor volume: 99 ± 11 mm^3
Group 3, 7 mpk IV biw x4 cycles, day 14
  Tumor volume: 140 ± 16 mm^3
Group 3, 7 mpk IV biw x4 cycles, day 16
  Tumor volume: 134 ± 10 mm^3
Group 3, 7 mpk IV biw x4 cycles, day 18
  Tumor volume: 133 ± 15 mm^3
Group 3, 7 mpk IV biw x4 cycles, day 21
  Tumor volume: 236 ± 36 mm^3
Group 3, 7 mpk IV biw x4 cycles, day 23
  Tumor volume: 317 ± 59 mm^3
Group 3, 7 mpk IV biw x4 cycles, day 25
  Tumor volume: 337 ± 56 mm^3
Group 3, 7 mpk IV biw x4 cycles, day 28
  Tumor volume: 602 ± 144 mm^3
Group 3, 7 mpk IV biw x4 cycles, day 30
  Tumor volume: 1181 ± 278 mm^3
[5]
  ILS: 133.3%
  MST: 35 days
  RTV at day 11: 1.06 ± 0.22
  Tumor Size at day 11: 69 ± 11 mm^3
Group 4, 14 mpk IV biw x4 cycles, day 0
  Tumor volume: 72 ± 6 mm^3
Group 4, 14 mpk IV biw x4 cycles, day 2
  Tumor volume: 80 ± 12 mm^3
Group 4, 14 mpk IV biw x4 cycles, day 4
  Tumor volume: 70 ± 8 mm^3
Group 4, 14 mpk IV biw x4 cycles, day 7
  Tumor volume: 86 ± 13 mm^3
Group 4, 14 mpk IV biw x4 cycles, day 9
  Tumor volume: 70 ± 11 mm^3
[6]
  T/C: 6.51%
  TGI: 100.28%
  Tumor volume: 69 ± 11 mm^3
Group 4, 14 mpk IV biw x4 cycles, day 14
  Tumor volume: 95 ± 14 mm^3
Group 4, 14 mpk IV biw x4 cycles, day 16
  Tumor volume: 107 ± 25 mm^3
Group 4, 14 mpk IV biw x4 cycles, day 18
  Tumor volume: 96 ± 22 mm^3
Group 4, 14 mpk IV biw x4 cycles, day 21
  Tumor volume: 144 ± 45 mm^3
Group 4, 14 mpk IV biw x4 cycles, day 23
  Tumor volume: 163 ± 41 mm^3
Group 4, 14 mpk IV biw x4 cycles, day 25
  Tumor volume: 167 ± 47 mm^3
Group 4, 14 mpk IV biw x4 cycles, day 28
  Tumor volume: 261 ± 54 mm^3
Group 4, 14 mpk IV biw x4 cycles, day 30
  Tumor volume: 562 ± 124 mm^3
Group 4, 14 mpk IV biw x4 cycles, day 32
  Tumor volume: 967 ± 171 mm^3
Group 4, 14 mpk IV biw x4 cycles, day 35
  Tumor volume: 1884 ± 337 mm^3
[7]
  ILS: 86.7%
  MST: 28 days
  RTV at day 11: 2.06 ± 0.40
  Tumor Size at day 11: 134 ± 21 mm^3
Group 5, 14 mpk IV qw x4 cycles, day 0
  Tumor volume: 70 ± 4 mm^3
Group 5, 14 mpk IV qw x4 cycles, day 2
  Tumor volume: 67 ± 5 mm^3
Group 5, 14 mpk IV qw x4 cycles, day 4
  Tumor volume: 77 ± 12 mm^3
Group 5, 14 mpk IV qw x4 cycles, day 7
  Tumor volume: 152 ± 20 mm^3
Group 5, 14 mpk IV qw x4 cycles, day 9
  Tumor volume: 105 ± 12 mm^3
[8]
  T/C: 12.69%
  TGI: 93.98%
  Tumor volume: 134 ± 21 mm^3
Group 5, 14 mpk IV qw x4 cycles, day 14
  Tumor volume: 312 ± 56 mm^3
[9]
  ILS: 60.0%
  MST: 24 days
  RTV at day 11: 2.86 ± 0.39
  Tumor Size at day 11: 206 ± 33 mm^3
Group 6, 21 mpk IV qw x4 cycles, day 0
  Tumor volume: 71 ± 4 mm^3
Group 6, 21 mpk IV qw x4 cycles, day 2
  Tumor volume: 79 ± 10 mm^3
Group 6, 21 mpk IV qw x4 cycles, day 4
  Tumor volume: 80 ± 9 mm^3
Group 6, 21 mpk IV qw x4 cycles, day 7
  Tumor volume: 182 ± 24 mm^3
Group 6, 21 mpk IV qw x4 cycles, day 9
  Tumor volume: 164 ± 21 mm^3
[10]
  T/C: 17.57%
  TGI: 87.26%
  Tumor volume: 206 ± 33 mm^3
Group 6, 21 mpk IV qw x4 cycles, day 14
  Tumor volume: 440 ± 87 mm^3
Group 6, 21 mpk IV qw x4 cycles, day 16
  Tumor volume: 515 ± 84 mm^3
Group 6, 21 mpk IV qw x4 cycles, day 18
  Tumor volume: 740 ± 120 mm^3
Group 6, 21 mpk IV qw x4 cycles, day 21
  Tumor volume: 1005 ± 174 mm^3
Group 6, 21 mpk IV qw x4 cycles, day 23
  Tumor volume: 1683 ± 302 mm^3
